Experimental data as given in publication PMC12214830, “The human RIF1-Long isoform interacts with BRCA1 to promote recombinational fork repair under DNA replication stress” (Nature Communications, 2025).

Experiments:
[1] = system: RIF1-BRCA1 proximity in RPE-1 cells; assay: RIF1-BRCA1 proximity ligation assay, RPE-1 cells; format: cell-based, human
Protocol: (§1) Proximity ligation assays were performed using the Duolink In Situ PLA Fluorescence Protocol (Sigma-Aldrich, DUO92101) following the manufacturer’s instruction. Cells were grown on glass coverslips and treated as indicated for specific experiments. Cells were then permeabilized with 0.5% TritonX-100 in PBS for 10 min on ice, and fixed with 3% formaldehyde, 2% sucrose in PBS for 10 min at room temperature (RT). After fixation, coverslips were blocked in 3% BSA in PBS for 1 h at RT and incubated with primary antibodies (anti-RIF1, Bethel laboratories A300-568A, 1:1000 dilution; anti-BRCA1, Santa Cruz Biotechnologies, sc-6954, 1:200 dilution), for 1 h at RT in a humidity chamber. Primary antibodies were then washed off with PLA washing buffer A supplied in the Duolink In Situ PLA kit. Coverslips were next incubated sequentially with PLA Probes (1 h at 37 °C), ligation solution (30 min at 37 °C) and amplification solution (100 min at 37 °C), with washes by washing buffer A in between each step. At the end of incubation, coverslips were washed with washing buffer B supplied in the Duolink In Situ PLA kit. Coverslips were then mounted on glass slides with PLA Mounting medium with DAPI. Images were captured by fluorescence microscopy (Zeiss Axio Imager). PLA foci number in each nucleus were analysed by CellProfiler Software[74] with a custom-made pipeline.
For EdU labelling combined with proximity ligation assay, cells were labelled with 10 µM EdU for 15 min, washed free of EdU and next incubated with medium containing 4 mM HU medium for 4 h. Cells were then permeabilized, fixed and subjected to RIF1-BRCA1 PLA procedures. After all PLA steps, EdU detection was performed following manufacturer’s instructions in the Click-iT EdU Imaging Kit (Invitrogen, C10640).
(§2) For proximity ligation assays and immunofluorescence signal intensity measurements, when comparing between two samples, statistical significance of differences was calculated by Mann-Whitney test for non-parametric distributions using GraphPad Prism software (v.9). When comparing among three or more samples, p values were calculated by Kruskal-Wallis test for non-parametric distributions with Dunn’s multiple comparisons using GraphPad Prism software (v.9). For RIF1 foci formation analysis (Fig. 6B), p values were calculated by two-tailed Student’s t test. For nuclear BRCA1 intensity fold change analyses (Fig. 6C, D), p values were calculated by two-tailed one-sample t test using GraphPad Prism software (v.9). For RAD51 foci formation analyses (Fig. 7B, E and Supplementary Fig. 7B), p values were calculated by chi-square test. For HR Reporter assay analysis (Fig. 7G and Supplementary Fig. 7L), p values were calculated by two-tailed paired Student’s t test. For micronuclei frequency analysis (Fig. 7H), p values were calculated by one-tailed paired Student’s t test. All Student’s t tests were performed with Excel T.TEST function. Chi-square tests were performed with the online Chi-square test calculator at https://www.socscistatistics.com/tests/chisquare2/default2.aspx. Sample number n for all box-and-whisker plots and dot plots are listed in Supplementary Data 1.

HCT116 cells = assay: colony formation (clonogenic survival) assay, HCT116 cells; format: cell-based, human; settings: for colony survival, RIF1-L cells: HCT116 expressing only RIF1-L, versus RIF1-WT; for colony survival, RIF1-S cells: HCT116 expressing only RIF1-S, versus RIF1-KO
Protocol: For HCT116-derived cells, cells were plated in 6-well plates at 250 cells/well, in triplicate for each drug concentration. Cells were incubated with drugs for 24 h, after which drug-containing medium was replaced with drug-free medium. Seven days later colony counting was performed using a Nikon Eclipse TS100 microscope. For the IR sensitivity test, cells were plated following the same procedure, then irradiated at desired doses and incubated for 7 days before colony counting. Clusters with more than 20 cells were counted as colonies. Mean and standard error of each triplicate was calculated.

[2] = system: RIF1-BRCA1 proximity in HeLa cells; assay: RIF1-BRCA1 proximity ligation assay, HeLa cells; format: cell-based, human; settings: HeLa +RIF1-L
Protocol: as §1, §2

RIF1-L-pS2265 antibody = assay: ELISA, RIF1-L pS2265 antibody binding to exon 31 peptides; design: key: absorbance at 450 nm, blank-subtracted
Protocol: Two biotinylated peptides corresponding to exon 31 of human RIF1-L without phosphorylation (Biotin-(long chain)-[…]) and with phosphorylation at S2265 (Biotin-(long chain)-[…]-pS-[…]) were synthesised by Eurogentec Ltd (Southampton, Hampshire, UK). Two peptides were mixed in a variable ratio of 0–1% phosphorylated peptide/total peptide. The concentration of total peptide was kept constant at 250 nM in the ELISA wash buffer (1x TBS with 0.1% BSA and 0.05% Tween-20). The peptides were incubated within streptavidin-coated 96-well plates (Pierce Streptavidin Coated High Capacity Plates, Thermo Scientific, 15500) for 2 h at room temperature. After washing with ELISA wash buffer, the RIF1-L pS2265 phospho-antibody (1:2500 dilution) was added and incubated for 2 h at room temperature, followed by washing and incubation with HRP-conjugated secondary antibody (anti-rabbit; Bio-Rad #1706515, 1/10,000 dilution) for 1 h at room temperature. After washing, TMB substrate solution (1-Step Slow TMB-Elisa Substrate Solution, ThermoFisher, 34024) was added to develop the blue colour. 1 N HCl was then added to stop the reaction. Absorbance at 450 nm was measured. The average readings of the blank wells were subtracted. Mean and standard deviations of technical triplicates are shown.

micronuclei = micronuclei frequency, HeLa cells; format: cell-based, human; settings: Fig.7H
Protocol: as §2

[3] = Fig S4I, ATMi (KU-60019) 2µM + HU 4mM 24hr
[4] = Fig S4J, DNA-PKi (NU-7441) 1µM + HU 4mM 24hr
[5] = HeLa RIF1 KO + GFP-RIF1 derivative cells, HU, experiment 07Jun2024
[6] = HeLa RIF1 KO + GFP-RIF1 derivative cells, unt, experiment 07Jun2024

C[C@@]1(CO)[C@H](O)CC[C@@]2(C)[C@H]1CC[C@H]1C[C@@H]3C[C@@]12CC[C@]3(O)CO [APH, aphidicolin]
RIF1-BRCA1 PLA foci ([1]; APH 4 µM 24 h): also induced PLA foci | RIF1-BRCA1 PLA foci per nucleus, mean ([1]; Fig 3C, APH 4 µM 24 h): 1.540 | RIF1-BRCA1 PLA foci per nucleus, median ([1]; Fig 3C, APH 4 µM 24 h): 1 | colony survival, RIF1-L cells (HCT116 cells): RIF1-L conferred resistance comparable to RIF1-WT | colony survival, RIF1-S cells (HCT116 cells): exhibited hypersensitivity to these drugs similar to RIF1-KO cells

CC[C@@]1(O)C(=O)OCc2c1cc1n(c2=O)Cc2cc3ccccc3nc2-1 [CPT, camptothecin]
RIF1-BRCA1 PLA foci ([1]; CPT 100 nM 24 h): also induced PLA foci | RIF1-BRCA1 PLA foci per nucleus, mean ([1]; Fig 3C, CPT 100 nM 24 h): 4.982 | RIF1-BRCA1 PLA foci per nucleus, median ([1]; Fig 3C, CPT 100 nM 24 h): 4 | colony survival, RIF1-L cells (HCT116 cells): RIF1-L conferred resistance comparable to RIF1-WT | colony survival, RIF1-S cells (HCT116 cells): exhibited hypersensitivity to these drugs similar to RIF1-KO cells

C[C@@H]1CN(CC(=O)Nc2ccc3c(c2)Cc2cccc(-c4cc(=O)cc(N5CCOCC5)o4)c2S3)C[C@H](C)O1 [KU-60019]
RIF1-BRCA1 PLA foci per nucleus, mean [2, 3]: 18.33 | RIF1-BRCA1 PLA foci per nucleus, median [2, 3]: 2, 17, 17 | RIF1-BRCA1 PLA ([2]; ATMi (KU-60019) 2 µM 24 h + HU 4 mM 24 h): no apparent effect

O=c1cc(N2CCOCC2)oc2c(-c3cccc4c3sc3ccccc34)cccc12 [NU-7441]
RIF1-BRCA1 PLA ([1]; DNA-PKi (NU-7441) 1 µM 24 h + HU 4 mM 24 h): no apparent effect | RIF1-BRCA1 PLA foci per nucleus, mean [1, 4]: 7.597 | RIF1-BRCA1 PLA foci per nucleus, median [1, 4]: 0, 5, 5

Biotin-(long chain)-HNTTSAKGFLSPGSR-pS-PKFKSSKKCL [RIF1-L-phosphoS2265 peptide, biotinylated exon 31 peptide of human RIF1-L phosphorylated at S2265]
A450, Average (RIF1-L-pS2265 antibody; 0.00% phosphorylated/total peptide (250 nM total), mean of technical triplicates): 0.009 | A450 (RIF1-L-pS2265 antibody; 0.00% phosphorylated/total peptide (250 nM total), replicate 1): 0.01 | A450 (RIF1-L-pS2265 antibody; 0.00% phosphorylated/total peptide (250 nM total), replicate 2): 0.008 | A450 (RIF1-L-pS2265 antibody; 0.00% phosphorylated/total peptide (250 nM total), replicate 3): 0.01 | A450, Average (RIF1-L-pS2265 antibody; 0.13% phosphorylated/total peptide (250 nM total), mean of technical triplicates): 0.104 | A450 (RIF1-L-pS2265 antibody; 0.13% phosphorylated/total peptide (250 nM total), replicate 1): 0.106 | A450 (RIF1-L-pS2265 antibody; 0.13% phosphorylated/total peptide (250 nM total), replicate 2): 0.104 | A450 (RIF1-L-pS2265 antibody; 0.13% phosphorylated/total peptide (250 nM total), replicate 3): 0.103 | A450, Average (RIF1-L-pS2265 antibody; 0.25% phosphorylated/total peptide (250 nM total), mean of technical triplicates): 0.166 | A450 (RIF1-L-pS2265 antibody; 0.25% phosphorylated/total peptide (250 nM total), replicate 1): 0.16 | A450 (RIF1-L-pS2265 antibody; 0.25% phosphorylated/total peptide (250 nM total), replicate 2): 0.169 | A450 (RIF1-L-pS2265 antibody; 0.25% phosphorylated/total peptide (250 nM total), replicate 3): 0.169 | A450, Average (RIF1-L-pS2265 antibody; 0.50% phosphorylated/total peptide (250 nM total), mean of technical triplicates): 0.239 | A450 (RIF1-L-pS2265 antibody; 0.50% phosphorylated/total peptide (250 nM total), replicate 1): 0.247 | A450 (RIF1-L-pS2265 antibody; 0.50% phosphorylated/total peptide (250 nM total), replicate 2): 0.216 | A450 (RIF1-L-pS2265 antibody; 0.50% phosphorylated/total peptide (250 nM total), replicate 3): 0.255 | A450, Average (RIF1-L-pS2265 antibody; 1.00% phosphorylated/total peptide (250 nM total), mean of technical triplicates): 0.346 | A450 (RIF1-L-pS2265 antibody; 1.00% phosphorylated/total peptide (250 nM total), replicate 1): 0.348 | A450 (RIF1-L-pS2265 antibody; 1.00% phosphorylated/total peptide (250 nM total), replicate 2): 0.343 | A450 (RIF1-L-pS2265 antibody; 1.00% phosphorylated/total peptide (250 nM total), replicate 3): 0.347 | A450, Average (RIF1-L-pS2265 antibody; Standard 0.13%, average of 3, right block): 0.104 | A450 (RIF1-L-pS2265 antibody; Standard 0.13%, replicate 1, left block): 0.155 | A450 (RIF1-L-pS2265 antibody; Standard 0.13%, replicate 1, right block (0.049 below left block)): 0.106 | A450 (RIF1-L-pS2265 antibody; Standard 0.13%, replicate 2, left block): 0.153 | A450 (RIF1-L-pS2265 antibody; Standard 0.13%, replicate 2, right block (0.049 below left block)): 0.104 | A450 (RIF1-L-pS2265 antibody; Standard 0.13%, replicate 3, left block): 0.152 | A450 (RIF1-L-pS2265 antibody; Standard 0.13%, replicate 3, right block (0.049 below left block)): 0.103 | A450, Average (RIF1-L-pS2265 antibody; Standard 0.25%, average of 3, right block): 0.166 | A450 (RIF1-L-pS2265 antibody; Standard 0.25%, replicate 1, left block): 0.209 | A450 (RIF1-L-pS2265 antibody; Standard 0.25%, replicate 1, right block (0.049 below left block)): 0.16 | A450 (RIF1-L-pS2265 antibody; Standard 0.25%, replicate 2, left block): 0.218 | A450 (RIF1-L-pS2265 antibody; Standard 0.25%, replicate 2, right block (0.049 below left block)): 0.169 | A450 (RIF1-L-pS2265 antibody; Standard 0.25%, replicate 3, left block): 0.218 | A450 (RIF1-L-pS2265 antibody; Standard 0.25%, replicate 3, right block (0.049 below left block)): 0.169 | A450, Average (RIF1-L-pS2265 antibody; Standard 0.50%, average of 3, right block): 0.239 | A450 (RIF1-L-pS2265 antibody; Standard 0.50%, replicate 1, left block): 0.296 | A450 (RIF1-L-pS2265 antibody; Standard 0.50%, replicate 1, right block (0.049 below left block)): 0.247 | A450 (RIF1-L-pS2265 antibody; Standard 0.50%, replicate 2, left block): 0.265 | A450 (RIF1-L-pS2265 antibody; Standard 0.50%, replicate 2, right block (0.049 below left block)): 0.216 | A450 (RIF1-L-pS2265 antibody; Standard 0.50%, replicate 3, left block): 0.304 | A450 (RIF1-L-pS2265 antibody; Standard 0.50%, replicate 3, right block (0.049 below left block)): 0.255 | A450, Average (RIF1-L-pS2265 antibody; Standard 1.00%, average of 3, right block): 0.346 | A450 (RIF1-L-pS2265 antibody; Standard 1.00%, replicate 1, left block): 0.397 | A450 (RIF1-L-pS2265 antibody; Standard 1.00%, replicate 1, right block (0.049 below left block)): 0.348 | A450 (RIF1-L-pS2265 antibody; Standard 1.00%, replicate 2, left block): 0.392 | A450 (RIF1-L-pS2265 antibody; Standard 1.00%, replicate 2, right block (0.049 below left block)): 0.343 | A450 (RIF1-L-pS2265 antibody; Standard 1.00%, replicate 3, left block): 0.396 | A450 (RIF1-L-pS2265 antibody; Standard 1.00%, replicate 3, right block (0.049 below left block)): 0.347

Phleomycin
colony growth after treatment, RIF1-L and RIF1-S cells (HCT116 cells; HCT116 expressing only RIF1-L or only RIF1-S): able to support colony growth

RIF1-L -APKF
Micronuclei per 100 (micronuclei; HU, experiment 14Apr2024): 14.2857 | Micronuclei per 100 (micronuclei; [5]): 12.35 | Micronuclei per 100 (micronuclei; [6]): 6.03 | Micronuclei per 100 (micronuclei; unt, experiment 14Apr2024): 4.214

RIF1-S
Micronuclei per 100 (micronuclei; HU, experiment 14Apr2024): 12.4358 | Micronuclei per 100 (micronuclei; [5]): 12.93 | Micronuclei per 100 (micronuclei; [6]): 6.41 | Micronuclei per 100 (micronuclei; unt, experiment 14Apr2024): 6.217
